# From publication PMC10178127, “Immunomodulatory Effects of the Pea Defensin Psd1 in the Caco-2/Immune Cells Co-Culture upon Candida albicans Infection” (International Journal of Molecular Sciences, 2023)
# Test system: Caco-2/moDCs co-culture
# Assay: Multiplex xMAP cytokine production, Caco-2/dendritic cells co-culture
# Format: cell-based, human
# Conditions: 24 h; for EGF level / Eotaxin level / FGF-2 level / FLT-3L level / Fractalkine level / G-CSF level / GM-CSF level / GROa level / IFNa2 level / IFNg level / IL-1RA level / IL-1a level / IL-1b level / IL-2 level / IL-3 level / IL-4 level / IL-5 level / IL-6 level / IL-7 level / IL-8 level / IL-9 level / IL-10 level / IL-12 (p40) level / IL-12 (p70) level / IL-13 level / IL-15 level / IL-17A level / IL-17E/IL-25 level / IL-17F level / IL-18 level / IL-22 level / IL-27 level / IP-10 level / M-GSF level / MCP-1 level / MCP-3 level / MDC level / MIG level / MIP-1a level / MIP-1b level / PDGF-AA level / PDGF-AB/BB level / RANTES level / TGF-a level / TNFa level / TNFb level / VEGFa level / sCD40L level: 2 µM apical, basolateral medium
# Source text: The co-culture model consisted of immune cells (moDCs or monocytes) lying on the bottom of the culture well, and a Caco-2 polarized monolayer, mimicking intestinal epithelium, on a permeable insert. Immune cells were located on the serosal side of the epithelial barrier. In some inserts Candida albicans was loaded to the apical side of the epithelium, mimicking intestinal lumen colonization with this pathogenic fungus. This co-culture model allows yeast cells to contact only with the apical side of epithelial cells, but not with immune cells. Culture medium, containing cytokines, chemokines, and growth factors, produced by both epithelial and immune cells, was taken from basolateral chambers and analyzed by multiplex xMAP technology after incubation during 24 h when C. albicans cells switched to hyphal form.
# For growing cells, mimicking epithelial barriers in vitro, Caco-2 cells were seeded onto 24-well polycarbonate Millicell cell culture inserts (0.4 μm, 0.6 cm^2 surface area) (Millipore, Burlington, MA, USA), precoated with 0.2% bovine gelatin (Sigma-Aldrich), at a density of 2.5 × 10^5 cells/cm^2. The cells were grown for 21 days in a complete DMEM/F12 (1:1) medium with re-feeding every 2–3 days with a fresh complete medium. The integrity of the Caco-2 cell monolayer was checked by measuring the transepithelial electrical resistance (TEER) using a Millicell-ERS Voltohmmeter (Millipore). Only cell monolayers with TEER > 400 Ωcm^2 (after subtracting TEER in blank inserts without Caco-2 cells) were used in transport across epithelial monolayer and cytokine production experiments.
# Monocytes and moDCs were seeded into the wells of 48- and 24-well plates in the complete RPMI-1640 medium supplemented with 10% human AB serum (HABS, Capricorn Scientific) without antibiotics 24 h prior to the experiment, and kept in a humidified CO2-incubator (5% CO2, 37 °C). After 24 h, the medium in the wells of the 48-well plate was replaced by fresh complete RPMI-1640 medium with 10% HABS, supplemented with 2 µM of Psd1 for the sample wells or fresh medium alone for the control wells. Medium in the wells of the 24-well plate was replaced by fresh complete RPMI-1640 medium with 10% human serum without antibiotics. Then, Millicell inserts with Caco-2 monolayers with TEER > 400 Ωcm^2 were placed into the wells of the 24-well plate, containing monocytes or moDCs. Wells with Millicell inserts with Caco-2 monolayers without immune cells were used as control wells. Medium in apical chambers of Millicell inserts was replaced by fresh complete RPMI-1640 with 10% human serum medium containing Psd1 at the final concentration of 2 µM or Candida albicans at the concentration of 5 × 10^4 cells/mL or yeast cells together with the pea defensin at the same concentration. Fresh complete RPMI-1640 medium only with 10% human serum and without antibiotics was used in control wells. Plates were kept in CO2-incubator (5% CO2, 37 °C) for another 24 h. Culture supernatants from the wells of the 48-well plate and basolateral chambers of the 24-well plate were collected and stored at −70 °C degrees less than one month prior to the analytes assessment. […]
substance,measurement,setting,value
"Psd1: pea defensin from Pisum sativum (UNIPROT P81929), recombinant peptide overexpressed in Escherichia coli (KTCEHLADTYRGVCFTNASCDDHCKNKAHLISGTCHNWKCFCTQNC; UniProt P81929 1-46, looked up)","production of TNFα, IL-6, IL-8/CXCL8, IL-12, IL-27, G-CSF, GM-CSF, and MIPs induced by C. albicans","Caco-2/dendritic cells co-culture with C. albicans, 2 μM",inhibited the production
same,EGF level,Caco-2/moDCs+Candida+Psd1,4.72 pg/mL
same,Eotaxin level,Caco-2/moDCs+Candida+Psd1,<3.52↓ pg/ml
same,FGF-2 level,Caco-2/moDCs+Candida+Psd1,37.17 pg/mL
same,FLT-3L level,Caco-2/moDCs+Candida+Psd1,0.57 pg/mL
same,Fractalkine level,Caco-2/moDCs+Candida+Psd1,<17.82↓ pg/ml
same,G-CSF level,Caco-2/moDCs+Candida+Psd1,3.15 pg/mL
same,GM-CSF level,Caco-2/moDCs+Candida+Psd1,1.96 pg/mL
same,GROa level,Caco-2/moDCs+Candida+Psd1,23.25 pg/mL
same,IFNa2 level,Caco-2/moDCs+Candida+Psd1,7.95 pg/mL
same,IFNg level,Caco-2/moDCs+Candida+Psd1,<2.23↓ pg/ml
same,IL-1RA level,Caco-2/moDCs+Candida+Psd1,160.3 pg/mL
same,IL-1a level,Caco-2/moDCs+Candida+Psd1,3.72 pg/mL
same,IL-1b level,Caco-2/moDCs+Candida+Psd1,<2.26↓ pg/ml
same,IL-2 level,Caco-2/moDCs+Candida+Psd1,1.49 pg/mL
same,IL-3 level,Caco-2/moDCs+Candida+Psd1,<0.60↓ pg/ml
same,IL-4 level,Caco-2/moDCs+Candida+Psd1,<1.14↓ pg/ml
same,IL-5 level,Caco-2/moDCs+Candida+Psd1,2.95 pg/mL
same,IL-6 level,Caco-2/moDCs+Candida+Psd1,1.46 pg/mL
same,IL-7 level,Caco-2/moDCs+Candida+Psd1,<0.38↓ pg/ml
same,IL-8 level,Caco-2/moDCs+Candida+Psd1,107.27 pg/mL
same,IL-9 level,Caco-2/moDCs+Candida+Psd1,4.69 pg/mL
same,IL-10 level,Caco-2/moDCs+Candida+Psd1,17.03 pg/mL
same,IL-12 (p40) level,Caco-2/moDCs+Candida+Psd1,52.85 pg/mL
same,IL-12 (p70) level,Caco-2/moDCs+Candida+Psd1,<1.68↓ pg/ml
same,IL-13 level,Caco-2/moDCs+Candida+Psd1,11.06 pg/mL
same,IL-15 level,Caco-2/moDCs+Candida+Psd1,8.46 pg/mL
same,IL-17A level,Caco-2/moDCs+Candida+Psd1,<2.09↓ pg/ml
same,IL-17E/IL-25 level,Caco-2/moDCs+Candida+Psd1,<18.85↓ pg/ml
same,IL-17F level,Caco-2/moDCs+Candida+Psd1,<19.03↓ pg/ml
same,IL-18 level,Caco-2/moDCs+Candida+Psd1,4.94 pg/mL
same,IL-22 level,Caco-2/moDCs+Candida+Psd1,<5.23↓ pg/ml
same,IL-27 level,Caco-2/moDCs+Candida+Psd1,49.72 pg/mL
same,IP-10 level,Caco-2/moDCs+Candida+Psd1,334.16 pg/mL
same,M-GSF level,Caco-2/moDCs+Candida+Psd1,123.66 pg/mL
same,MCP-1 level,Caco-2/moDCs+Candida+Psd1,307.65 pg/mL
same,MCP-3 level,Caco-2/moDCs+Candida+Psd1,19.67 pg/mL
same,MDC level,Caco-2/moDCs+Candida+Psd1,2630 pg/mL
same,MIG level,Caco-2/moDCs+Candida+Psd1,38259 pg/mL
same,MIP-1a level,Caco-2/moDCs+Candida+Psd1,16.22 pg/mL
same,MIP-1b level,Caco-2/moDCs+Candida+Psd1,78.16 pg/mL
same,PDGF-AA level,Caco-2/moDCs+Candida+Psd1,256.1 pg/mL
same,PDGF-AB/BB level,Caco-2/moDCs+Candida+Psd1,97.16 pg/mL
same,RANTES level,Caco-2/moDCs+Candida+Psd1,<0.62↓ pg/ml
same,TGF-a level,Caco-2/moDCs+Candida+Psd1,35.55 pg/mL
same,TNFa level,Caco-2/moDCs+Candida+Psd1,18.93 pg/mL
same,TNFb level,Caco-2/moDCs+Candida+Psd1,0.97 pg/mL
same,VEGFa level,Caco-2/moDCs+Candida+Psd1,75.3 pg/mL
same,sCD40L level,Caco-2/moDCs+Candida+Psd1,84.71 pg/mL
same,EGF level,Caco-2/moDCs+Psd1,4.72 pg/mL
same,Eotaxin level,Caco-2/moDCs+Psd1,<3.52↓ pg/ml
same,FGF-2 level,Caco-2/moDCs+Psd1,45.43 pg/mL
same,FLT-3L level,Caco-2/moDCs+Psd1,0.57 pg/mL
same,Fractalkine level,Caco-2/moDCs+Psd1,<17.82↓ pg/ml
same,G-CSF level,Caco-2/moDCs+Psd1,9.1 pg/mL
same,GM-CSF level,Caco-2/moDCs+Psd1,3.93 pg/mL
same,GROa level,Caco-2/moDCs+Psd1,21.95 pg/mL
same,IFNa2 level,Caco-2/moDCs+Psd1,5.69 pg/mL
same,IFNg level,Caco-2/moDCs+Psd1,<2.23↓ pg/ml
same,IL-1RA level,Caco-2/moDCs+Psd1,141.59 pg/mL
same,IL-1a level,Caco-2/moDCs+Psd1,4.37 pg/mL
same,IL-1b level,Caco-2/moDCs+Psd1,9.3 pg/mL
same,IL-2 level,Caco-2/moDCs+Psd1,1.57 pg/mL
same,IL-3 level,Caco-2/moDCs+Psd1,<0.60↓ pg/ml
same,IL-4 level,Caco-2/moDCs+Psd1,<1.14↓ pg/ml
same,IL-5 level,Caco-2/moDCs+Psd1,3.35 pg/mL
same,IL-6 level,Caco-2/moDCs+Psd1,2.41 pg/mL
same,IL-7 level,Caco-2/moDCs+Psd1,<0.38↓ pg/ml
same,IL-8 level,Caco-2/moDCs+Psd1,134.16 pg/mL
same,IL-9 level,Caco-2/moDCs+Psd1,3.44 pg/mL
same,IL-10 level,Caco-2/moDCs+Psd1,10.61 pg/mL
same,IL-12 (p40) level,Caco-2/moDCs+Psd1,52.85 pg/mL
same,IL-12 (p70) level,Caco-2/moDCs+Psd1,<1.68↓ pg/ml
same,IL-13 level,Caco-2/moDCs+Psd1,16.44 pg/mL
same,IL-15 level,Caco-2/moDCs+Psd1,10.29 pg/mL
same,IL-17A level,Caco-2/moDCs+Psd1,<2.09↓ pg/ml
same,IL-17E/IL-25 level,Caco-2/moDCs+Psd1,<18.85↓ pg/ml
same,IL-17F level,Caco-2/moDCs+Psd1,<19.03↓ pg/ml
same,IL-18 level,Caco-2/moDCs+Psd1,4.84 pg/mL
same,IL-22 level,Caco-2/moDCs+Psd1,<5.23↓ pg/ml
same,IL-27 level,Caco-2/moDCs+Psd1,53.57 pg/mL
same,IP-10 level,Caco-2/moDCs+Psd1,330.74 pg/mL
same,M-GSF level,Caco-2/moDCs+Psd1,144.24 pg/mL
same,MCP-1 level,Caco-2/moDCs+Psd1,362.92 pg/mL
same,MCP-3 level,Caco-2/moDCs+Psd1,20.63 pg/mL
same,MDC level,Caco-2/moDCs+Psd1,2562 pg/mL
same,MIG level,Caco-2/moDCs+Psd1,32839 pg/mL
same,MIP-1a level,Caco-2/moDCs+Psd1,20.66 pg/mL
same,MIP-1b level,Caco-2/moDCs+Psd1,85.91 pg/mL
same,PDGF-AA level,Caco-2/moDCs+Psd1,233.14 pg/mL
same,PDGF-AB/BB level,Caco-2/moDCs+Psd1,92.84 pg/mL
same,RANTES level,Caco-2/moDCs+Psd1,<0.62↓ pg/ml
same,TGF-a level,Caco-2/moDCs+Psd1,40.15 pg/mL
same,TNFa level,Caco-2/moDCs+Psd1,20.96 pg/mL
same,TNFb level,Caco-2/moDCs+Psd1,1.55 pg/mL
same,VEGFa level,Caco-2/moDCs+Psd1,82.2 pg/mL
same,sCD40L level,Caco-2/moDCs+Psd1,98.67 pg/mL
